# Data taken from patent publication EP0563345B1, “NOVEL 4-ARYLPIPERAZINES AND 4-ARYLPIPERIDINES” (MCNEILAB, INC., priority 1991, dated 1993).
# Structures can show the parent of a compound that is named as a salt.
# How the values were obtained:
# [1] = target: T1, D-2 (dopamine-2) receptors (Rattus norvegicus, UniProt P61169); test: biochemical; assay type: binding, male, Wistar rats; details: rat striatum P2 fraction, 3H-spiperone 0.05 nM; read-out: Receptor Binding (Ki nM) D2
# T1 construct: The D2 assay employed a P2 fraction from the striatum, the ligand ^3H-spiperone at a concentration of 0.05 nM; from tissue; host or cells: rat striatum, P2 fraction (synaptosomal membranes), male Wistar rats
# T1 sequence (P61169 whole entry): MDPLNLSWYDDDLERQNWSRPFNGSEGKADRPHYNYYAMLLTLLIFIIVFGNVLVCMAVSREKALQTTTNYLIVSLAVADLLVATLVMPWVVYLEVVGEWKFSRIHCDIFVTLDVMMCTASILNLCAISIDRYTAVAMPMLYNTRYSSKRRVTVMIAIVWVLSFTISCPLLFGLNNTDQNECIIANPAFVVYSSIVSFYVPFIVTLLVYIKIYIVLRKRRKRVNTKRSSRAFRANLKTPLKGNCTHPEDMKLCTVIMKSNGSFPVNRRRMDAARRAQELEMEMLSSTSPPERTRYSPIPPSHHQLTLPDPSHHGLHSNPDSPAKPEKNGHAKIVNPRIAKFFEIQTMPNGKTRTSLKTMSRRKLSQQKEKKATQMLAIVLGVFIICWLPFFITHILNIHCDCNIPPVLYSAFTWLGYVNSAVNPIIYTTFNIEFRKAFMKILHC
# Description: The dopamine D2 binding activity of compounds was determined using a P2 fraction (synaptosomal membranes) prepared from male, Wistar rats.
# The data from this assay were analyzed by calculating the percent inhibition of the binding of the tritiated ligands by given concentrations of the test compound. Kl values, where given, were obtained from the logit analysis of concentration-inhibition curves.
# [2] = test system: Male, Fischer 344 rats; test: Block of Conditioned Avoidance Responding (Rat) test (CAR); details: for CAR 5 mg/kg IP Administration (% change CAR) / CAR 15 mg/kg IP Administration (% change CAR): negative number = blockade of CAR
# Excerpt: Apparatus: Rat operant chambers, housed within sound attenuated booths, both from Capden Instruments Ltd., were used in this test. The test chamber (8" H x […] D) is constructed of aluminum and plexiglass with floor grid bars of stainless-steel (1/8" O.D.) spaced 9/16" apart. A stainless-steel operation level 1-1/2" wide projects 3/4" into the chamber and is positioned 2-2/8" above the grid floor. The shock stimulus is delivered via the grid floor by a Coulbourn Instruments solid state module. The parameters of the test and the collection of data are controlled automatically.
# The rats are trained for two weeks to approach criterion levels in the avoidance test (90% avoidance rate). One-hour training sessions are run at about the same time each day for four or five days a week. The training session consists of 120 trials, with the conditioned stimuli presented every 30 sec. A trial begins with presentation of the conditioned stimuli (a light and a tone). If the rat responds by depressing the operant lever during the 15-second presentation of the conditioned stimuli, the trial is terminated and the animal is credited with a CAR. Failure to respond during the conditioned stimuli causes the presentation of the unconditioned stimulus (UCS), a 0.7 mA shock which is accompanied by a light and tone for five seconds. If the rat depressed the lever within the ten-second period, the shock and trial are terminated and an escape response recorded. If the rat fails to depress the lever during the UCS (shock), the trial is terminated after ten seconds of shock and the absence of a response is scored as a failure to escape. Intertrial level presses have no effect. If a rat performs at the 90% CAR level for two weeks, it is then run twice a week on the test schedule (see below) until baseline performance stabilized.
# Trained rats are run in a one-hour session on two consecutive days at the same time and in the same test chamber each day. The sessions consist of 60 trials, one every minute. The conditioned stimuli are presented for 15 sec (maximum) and the unconditioned stimuli five sec (maximum). On Day 1, a vehicle solution is administered to the rats at a time preceding the trial run corresponding to the pretreatment time for the test compound. The route of administration and the volume of vehicle are also matched to that of the test compound.
# The percent change in CAR on the drug treatment day compared to vehicle pretreatment day is the key measure. The percent change (% change) in CAR is determined using the following formula: % change CAR = ((% CAR for Day 2/% CAR for Day 1) x 100)-100 [formula]
# A negative number indicates a blockade of CAR, whereas a positive number would indicate increased CAR. The test results are reported as the mean % change for the group of rats. Failure to escape, a measure of the general sedative potential of the compound, was calculated for each animal as follows: % Failures = # of Failures to Escape/# of trials [formula]
# The % failures, viz., loss of escape, is also reported as a group mean. Failures to escape are monitored closely and a session is terminated if ten failures occurred.
# In the Tables and formulas therein, OiPr is isopropoxy, Me is methyl, MeO is methoxy, Et is ethyl, Ph is phenyl, n-Bu is normal butyl, cC6H11 is cyclohexyl, BOC is t-butyloxycarbonyl, Ac is acetyl, and NT is not tested in that partcular test. The escape loss numbers are shown at CAR 5 mg/kg unless otherwise noted.
smiles,measurement,setting,value
"CC(C)Oc1ccccc1N1CCN(Cc2cccc(C(=S)N3CCCCC3)c2)CC1.Cl [Compound 1, 1-[3-[[4-[2-(1-Methylethoxy)phenyl]-1-piperazinyl]methyl]thiobenzoyl]piperidine Hydrochloride]",Ki,[1],8 nM
same,CAR 5 mg/kg IP Administration (% change CAR),[2],-71%
same,(Escape Loss) % failures to escape,[2]; at CAR 5 mg/kg IP,20%
CC(C)Oc1ccccc1N1CCN(Cc2cccc(C(=O)N3C(C)CCC3C)c2)CC1 (stereo not drawn) [Compound 2],Ki,[1],4.7 nM
C[C@@H]1CCC[C@H](C)N1C(=O)c1cccc(CN2CCN(c3ccccc3C#N)CC2)c1 [Compound 3],Ki,[1],303 nM
CC(C)Oc1ccccc1N1CCN(Cc2cccc(C(=O)N3CCC4CCCCC43)c2)CC1 (stereo not drawn) [Compound 4],Ki,[1],5.6 nM
COc1ccc(CN2CCN(c3ncccn3)CC2)cc1C(=O)N1[C@H](C)CCC[C@@H]1C [Compound 6],Ki,[1],808 nM
CC(C)Oc1ccccc1N1CCN(Cc2ccc([N+](=O)[O-])c(C(=O)N3CCCCC3)c2)CC1 [Compound 7],Ki,[1],85 nM
CC(C)Oc1ccccc1N1CCN(Cc2cccc(C(=O)N3C(C)(C)CCCC3(C)C)c2)CC1 [Compound 12],Ki,[1],4.7 nM
same,CAR 15 mg/kg IP Administration (% change CAR),[2],-92%
same,(Escape Loss) % failures to escape,[2]; at CAR 15 mg/kg IP,9%
O=C(c1cccc(CN2CCN(c3ccccc3F)CC2)c1)N1CCCCC1 [Compound 22],CAR 15 mg/kg IP Administration (% change CAR),[2],-84%
same,(Escape Loss) % failures to escape,[2]; at CAR 15 mg/kg IP,21%
CC(C)Oc1ccccc1C1CCN(Cc2cccc(C(=O)N3[C@H](C)CCC[C@@H]3C)c2)CC1 [Compound 40],CAR 5 mg/kg IP Administration (% change CAR),[2],-98%
same,(Escape Loss) % failures to escape,[2]; at CAR 5 mg/kg IP,37%
O=C(c1cccc(CN2CCN(c3cccc([N+](=O)[O-])c3)CC2)c1)N1CCCCC1 [Compound 49],CAR 15 mg/kg IP Administration (% change CAR),[2],-78%
same,(Escape Loss) % failures to escape,[2]; at CAR 15 mg/kg IP,0%
CC(C)Oc1ccccc1N1CCN(Cc2cccc(C(=O)N3CCC3)c2)CC1 [Compound 51],CAR 15 mg/kg IP Administration (% change CAR),[2],-88%
same,(Escape Loss) % failures to escape,[2]; at CAR 15 mg/kg IP,0%
CC(C)Oc1ccccc1N1CCN(Cc2cccc(C(=O)N3CCCC3)c2)CC1 [Compound 52],CAR IP Administration (% change CAR) at 7.5 mg/kg,[2]; 7.5 mg/kg IP,-98%
same,(Escape Loss) % failures to escape,[2]; at CAR 7.5 mg/kg IP,0%
CCN(CC)C(=O)c1cccc(CN2CCN(c3ccccc3OC(C)C)CC2)c1 [Compound 68],CAR 5 mg/kg IP Administration (% change CAR),[2],-96%
same,(Escape Loss) % failures to escape,[2]; at CAR 5 mg/kg IP,14%
CCCCN(CCCC)C(=O)c1cccc(CN2CCN(c3ccccc3OC(C)C)CC2)c1 [Compound 69],CAR 15 mg/kg IP Administration (% change CAR),[2],-6%
same,(Escape Loss) % failures to escape,[2]; at CAR 15 mg/kg IP,0%
COc1ccccc1N1CCN(Cc2cccc(C(=O)N3CCCCCC3)c2)CC1 [Compound 85],CAR 5 mg/kg IP Administration (% change CAR),[2],-95%
same,(Escape Loss) % failures to escape,[2]; at CAR 5 mg/kg IP,22%
O=C(c1cccc(CN2CCN(c3cccc(Cl)c3)CC2)c1)N1CCCCC1 [Compound 91],CAR 5 mg/kg IP Administration (% change CAR),[2],-36%
same,(Escape Loss) % failures to escape,[2]; at CAR 5 mg/kg IP,21%
O=C(c1cccc(CN2CCN(c3ccccc3)CC2)c1)N1CCCCC1 [Compound 95],CAR 15 mg/kg IP Administration (% change CAR),[2],-82%
same,(Escape Loss) % failures to escape,[2]; at CAR 15 mg/kg IP,11%
CC(C)Oc1ccccc1N1CCN(Cc2cccc(C(=O)N3CC4CCC(CC4)C3)c2)CC1 [Compound 96],CAR 15 mg/kg IP Administration (% change CAR),[2],-98%
same,(Escape Loss) % failures to escape,[2]; at CAR 15 mg/kg IP,67%
"CC(C)Oc1ccccc1N1CCN(CCCC(=O)c2ccc(C(=O)N3CCCCC3)cc2)CC1 [Compound 100, fumarate]",Ki,[1],11 nM
"CC(C)Oc1ccccc1N1CCN(CCCC(O)c2ccc(C(=O)N3CCCCC3)cc2)CC1 (stereo not drawn) [Compound 101, bisoxalate]",Ki,[1],13 nM
"CC(C)Oc1ccccc1N1CCN(CCCCc2ccc(C(=O)N3CCCCC3)cc2)CC1 [Compound 102, 1-[4-[4-[4-[2-(1-Methylethoxy)phenyl]-1-piperazinyl]butyl]benzoyl]piperidine dihydrobromide]",Ki,[1],7.2 nM
CCOC(=O)C1CCN(C(=O)c2ccccc2CN2CCN(c3ccccc3OC(C)C)CC2)CC1 [Compound 108],Ki,[1],10.4 nM
CC(C)Oc1ccccc1N1CCN(Cc2ccccc2C(=O)N2CCCC(C)(C)C2)CC1 [Compound 109],Ki,[1],7 nM
CC(C)Oc1ccccc1N1CCN(Cc2ccccc2C(=O)N2CCOCC2)CC1 [Compound 110],Ki,[1],32 nM
